Assay [1] concerns HEK293. The assay can be described thus: EBV LMP1 TES2 canonical NF-kB signalling blockers – cell-based, HEK293, luciferase, cherry-pick, dose response (AID 588343). The note with it: Homo sapiens. Format: functional.
Assay [2] concerns the target Latent membrane protein 1 (Human herpesvirus 4 (strain B95-8), UniProt P03230). The assay is described as follows: LMP1 TES1 pathway selectivity over dsRED control – imaging, HEK293T, dual-color eGFP/dsRED, cherry-picks, selectivity assay for LMP1 NF-kB inhibitor project, dose response (AID 588398). Format: functional, cell-based.
Assay [3] addresses T1, Caspase-3 (Homo sapiens, UniProt P42574).
T1 sequence (P42574 whole entry): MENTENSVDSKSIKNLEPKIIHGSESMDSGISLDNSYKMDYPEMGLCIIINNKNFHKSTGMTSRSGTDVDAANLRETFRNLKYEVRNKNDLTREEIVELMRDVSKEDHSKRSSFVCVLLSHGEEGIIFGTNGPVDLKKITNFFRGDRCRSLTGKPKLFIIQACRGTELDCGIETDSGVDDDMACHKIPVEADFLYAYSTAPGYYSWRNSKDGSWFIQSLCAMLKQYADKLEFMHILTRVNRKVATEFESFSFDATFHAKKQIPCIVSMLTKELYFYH
The assay is described as follows: inhibition of recombinant caspase-3 activity – biochemical, luminescence, set 2, selectivity assay for SENP protease inhibitor project, SAR follow-up (AID 588599). Format: functional.

In assay [4] the target is T2, Sentrin-specific protease 8 (Homo sapiens, UniProt Q96LD8).
T2 sequence (Q96LD8 whole entry): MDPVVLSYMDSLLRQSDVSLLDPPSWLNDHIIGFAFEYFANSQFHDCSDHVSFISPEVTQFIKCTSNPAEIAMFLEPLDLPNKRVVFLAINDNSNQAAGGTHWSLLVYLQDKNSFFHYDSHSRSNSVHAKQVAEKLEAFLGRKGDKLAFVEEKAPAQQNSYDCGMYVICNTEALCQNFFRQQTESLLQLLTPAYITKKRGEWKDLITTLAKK
The assay is described as follows: inhibition of sentrin protease 8 – biochemical, luminescence, set 2, SAR follow-up (AID 588601). Format: functional.

The target of assay [5] is T3, Sentrin-specific protease 7 (Homo sapiens, UniProt Q9BQF6).
T3 sequence (Q9BQF6 whole entry): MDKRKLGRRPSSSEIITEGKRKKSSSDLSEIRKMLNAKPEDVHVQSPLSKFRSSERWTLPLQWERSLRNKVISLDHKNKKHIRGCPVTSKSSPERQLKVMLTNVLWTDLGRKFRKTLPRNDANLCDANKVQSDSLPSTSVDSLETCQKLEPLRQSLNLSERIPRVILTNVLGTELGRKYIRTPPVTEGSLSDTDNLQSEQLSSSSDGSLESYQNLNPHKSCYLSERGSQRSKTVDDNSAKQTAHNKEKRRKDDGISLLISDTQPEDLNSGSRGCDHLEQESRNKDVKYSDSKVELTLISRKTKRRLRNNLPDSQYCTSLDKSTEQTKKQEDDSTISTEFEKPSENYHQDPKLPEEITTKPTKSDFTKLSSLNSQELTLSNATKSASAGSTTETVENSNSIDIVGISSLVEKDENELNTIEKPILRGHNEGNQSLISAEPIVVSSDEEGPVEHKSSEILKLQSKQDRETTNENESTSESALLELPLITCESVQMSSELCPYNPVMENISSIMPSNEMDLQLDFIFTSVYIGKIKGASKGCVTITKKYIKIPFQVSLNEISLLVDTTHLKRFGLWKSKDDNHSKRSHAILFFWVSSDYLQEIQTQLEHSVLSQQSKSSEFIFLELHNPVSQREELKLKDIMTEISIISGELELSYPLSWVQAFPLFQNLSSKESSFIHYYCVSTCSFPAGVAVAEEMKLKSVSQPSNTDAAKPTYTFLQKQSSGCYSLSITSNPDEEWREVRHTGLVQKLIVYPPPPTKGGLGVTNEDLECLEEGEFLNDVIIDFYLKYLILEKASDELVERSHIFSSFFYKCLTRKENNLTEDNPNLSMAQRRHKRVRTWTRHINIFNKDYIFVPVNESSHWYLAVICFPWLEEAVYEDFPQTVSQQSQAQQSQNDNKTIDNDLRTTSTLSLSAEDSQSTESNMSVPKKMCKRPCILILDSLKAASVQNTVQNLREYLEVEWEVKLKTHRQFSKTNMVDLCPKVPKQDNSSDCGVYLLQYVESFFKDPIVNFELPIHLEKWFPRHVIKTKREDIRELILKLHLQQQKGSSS
The assay is described as follows: inhibition of human SENP7 cleavage activity – biochemical, luminescence, set 2, SAR follow-up (AID 588600). It counts as functional.

Assay [6] deals with T4, Sentrin-specific protease 6 (Homo sapiens, UniProt Q9GZR1).
T4 sequence (Q9GZR1 whole entry): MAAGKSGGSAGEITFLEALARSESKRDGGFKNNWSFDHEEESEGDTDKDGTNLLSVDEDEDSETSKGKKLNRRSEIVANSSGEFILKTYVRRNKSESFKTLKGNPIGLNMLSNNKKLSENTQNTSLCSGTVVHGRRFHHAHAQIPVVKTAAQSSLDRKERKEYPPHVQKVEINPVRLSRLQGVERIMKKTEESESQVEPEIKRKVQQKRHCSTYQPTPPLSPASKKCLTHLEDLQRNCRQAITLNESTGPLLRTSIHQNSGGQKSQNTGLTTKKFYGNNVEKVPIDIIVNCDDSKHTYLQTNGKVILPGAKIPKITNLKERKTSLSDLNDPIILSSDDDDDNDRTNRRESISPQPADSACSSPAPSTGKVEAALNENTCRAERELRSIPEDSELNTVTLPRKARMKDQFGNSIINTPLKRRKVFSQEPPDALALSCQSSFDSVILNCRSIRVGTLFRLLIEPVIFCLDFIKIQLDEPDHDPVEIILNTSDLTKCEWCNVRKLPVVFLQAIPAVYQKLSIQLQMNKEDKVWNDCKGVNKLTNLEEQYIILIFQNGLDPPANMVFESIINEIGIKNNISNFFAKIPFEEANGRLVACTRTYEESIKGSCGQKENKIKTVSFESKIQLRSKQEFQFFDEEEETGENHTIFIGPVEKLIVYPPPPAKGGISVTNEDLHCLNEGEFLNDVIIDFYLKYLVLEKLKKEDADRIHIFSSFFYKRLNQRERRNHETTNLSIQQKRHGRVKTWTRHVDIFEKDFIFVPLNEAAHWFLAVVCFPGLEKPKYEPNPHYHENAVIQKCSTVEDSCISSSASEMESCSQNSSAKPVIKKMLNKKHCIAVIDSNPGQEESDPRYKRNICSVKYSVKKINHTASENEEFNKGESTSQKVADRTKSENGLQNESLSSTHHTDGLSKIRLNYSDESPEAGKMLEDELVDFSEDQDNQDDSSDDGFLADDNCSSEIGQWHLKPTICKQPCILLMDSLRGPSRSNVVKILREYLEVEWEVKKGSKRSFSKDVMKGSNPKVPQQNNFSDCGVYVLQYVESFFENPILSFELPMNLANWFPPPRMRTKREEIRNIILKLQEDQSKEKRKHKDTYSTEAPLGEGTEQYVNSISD
The assay is described as follows: inhibition of human SENP6 catalytic domain – biochemical, luminescence, set 2, SAR follow-up (AID 588598). It counts as functional.

Assay [7] deals with T2, Sentrin-specific protease 8. The assay is described as follows: inhibition of human SENP8 cleavage activity – biochemical, luminescence, SAR follow-up (AID 504501). It counts as functional.
Assay [8] addresses T1, Caspase-3. The assay can be described thus: SAR Analysis of small molecule inhibitors of Sentrin-specific proteases (SENPs) using a Caspase-3 Selectivity assay. [Related pubchem assays (depositor defined):AID2540, AID2599, AID434973, AID489001]. It counts as functional.
The target of assay [9] is T4, Sentrin-specific protease 6. The assay can be described thus: SAR Analysis of small molecule inhibitors of Sentrin-specific protease 6 (SENP6) using a Luminescent assay. [Related pubchem assays (depositor defined):AID2582, AID2599]. It counts as functional.
Assay [10] deals with T3, Sentrin-specific protease 7. The assay is described as follows: inhibition of human SENP7 cleavage activity – biochemical, luminescence, SAR follow-up (AID 504497). Format: functional.
A short description of assay [11]: Trypanosoma cruzi growth suppression in host cells – NIH3T3 host cells, beta-gal luminescence, confirmation (AID 2044).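 Further: intracellular parasites grown in NIH/3T3 mouse fibroblasts as host cells; luminescent beta-galactosidase reporter signal from transgenic T. cruzi replicating inside host cells; inhibitors lower the luminescence signal.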 Format: functional, cell-based.
Assay [12] in a line: NIH3T3 cell viability loss – ATP luminescence, mouse fibroblasts, counter-screen, dose response (AID 2010).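 Further: cells exposed to compound for about 90 hours before reading.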 Format: functional, cell-based.
The target in assay [13] is T5, Microphthalmia-associated transcription factor (Homo sapiens, UniProt O75030).
T5 sequence (O75030 whole entry): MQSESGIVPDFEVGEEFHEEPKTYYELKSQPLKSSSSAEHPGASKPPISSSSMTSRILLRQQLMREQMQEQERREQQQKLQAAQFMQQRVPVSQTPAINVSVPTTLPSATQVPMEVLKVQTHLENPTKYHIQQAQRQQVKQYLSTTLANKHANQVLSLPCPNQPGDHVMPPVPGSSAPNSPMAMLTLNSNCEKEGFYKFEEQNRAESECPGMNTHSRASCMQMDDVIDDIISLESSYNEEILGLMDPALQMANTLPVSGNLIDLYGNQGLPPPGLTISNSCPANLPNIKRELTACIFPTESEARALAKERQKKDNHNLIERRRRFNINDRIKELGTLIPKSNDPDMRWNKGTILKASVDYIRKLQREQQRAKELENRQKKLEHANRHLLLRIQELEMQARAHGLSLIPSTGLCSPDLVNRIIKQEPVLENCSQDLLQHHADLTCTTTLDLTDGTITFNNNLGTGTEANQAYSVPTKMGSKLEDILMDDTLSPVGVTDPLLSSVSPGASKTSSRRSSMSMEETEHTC
The assay is described as follows: reducers of TRPM1 reporter luminescence, concentration series – cell-based, SK-MEL-5, cherry-picked, set 3, MITF inhibitor project, dose response (AID 493073).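 Further: SK-MEL-5 melanoma cells with luciferase driven by the MITF target TRPM1 promoter.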 Format: functional.

Assay [14] has as its target V-type proton ATPase subunit c' (Saccharomyces cerevisiae S288c, UniProt P32842). The assay is described as follows: Dose Response with BCECF Assay for V-ATPase inhibitors that increase vacuolar pH, Powder Set 1. The note with it: read-out: EC50_MICROM. It counts as functional.

SMILES strings stand for the structures. Active and inactive are the calls of the source. For most assays here, no stated cut-off is given here; in the data, actives have a measured IC50 and inactives only a lower limit.

Chain of Latent membrane protein 1 (P03230 whole entry): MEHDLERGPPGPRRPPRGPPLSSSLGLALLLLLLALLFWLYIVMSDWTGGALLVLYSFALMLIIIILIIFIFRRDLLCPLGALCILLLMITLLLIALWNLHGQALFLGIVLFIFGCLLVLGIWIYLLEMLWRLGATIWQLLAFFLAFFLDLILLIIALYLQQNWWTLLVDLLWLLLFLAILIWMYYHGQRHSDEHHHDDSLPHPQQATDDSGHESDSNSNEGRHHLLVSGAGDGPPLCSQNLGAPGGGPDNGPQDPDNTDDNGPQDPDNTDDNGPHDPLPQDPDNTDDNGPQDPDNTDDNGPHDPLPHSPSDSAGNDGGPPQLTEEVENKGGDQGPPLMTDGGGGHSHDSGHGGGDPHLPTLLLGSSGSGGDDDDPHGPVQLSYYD
Chain of V-type proton ATPase subunit c' (P32842 whole entry): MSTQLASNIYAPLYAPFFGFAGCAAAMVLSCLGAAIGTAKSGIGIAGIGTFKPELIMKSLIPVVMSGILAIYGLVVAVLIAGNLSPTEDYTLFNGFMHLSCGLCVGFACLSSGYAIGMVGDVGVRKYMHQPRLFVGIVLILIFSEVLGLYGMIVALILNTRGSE

Take `COc1cccc(CNc2ncnc3ccc(-c4c(C)noc4C)cc23)c1`: the AC50 in assay [1] is 10.3 µM (active); in assay [2], 14.1 µM (active).

In the case of `O=C(Cc1ccc(C(F)(F)F)cc1[N+](=O)[O-])N/N=C/c1c[nH]c2ccccc12`, the IC50 in assay [3], in [4], in assay [5] and in assay [6] was > 99 µM (inactive) throughout.

`CC(N/C=C1/C(=O)N(c2nc3ccccc3s2)N=C1C(F)(F)F)C12CC3CC(CC(C3)C1)C2` (centres undefined): the IC50 in assay [7] was 86.9 µM (active); in [8] it was 40.7 µM (active); in [9], 77.3 µM (active); in assay [10], 87.3 µM (active).

In the case of `COc1ccc2nc(N3CCN(C(=O)c4ccc([N+](=O)[O-])o4)CC3)sc2c1`, the EC50 is 0.434 µM (active) in assay [11], 39.5 µM (active) in assay [12] and 0.728 µM (active) in assay [14]. The AC50 in [13] is 5.81 µM (active).

A word on the AC50: it is the concentration at which the activity in the assay is half-maximal. The IC50 is the concentration at which inhibition is half-maximal.

The values above are taken from ChEMBL document CHEMBL1201862, “PubChem BioAssay data set” (2004).
